Where two headings read alike, the source gives them in different places.
Columns and labels:
Rac [1] = molecular target: Rac (Homo sapiens, UniProt P63000); settings: cited from earlier work
Rac [2] = settings: cited from earlier work
MDA-MB-435 cells [3] = experiment: Lamellipodia formation by fluorescence microscopy (Rhodamine phalloidin), MDA-MB-435; assay type: cell-based, human
Rac [4] = settings: fibroblasts; read-out: IC50 as Rac inhibitor in fibroblasts; cited from earlier work
Trio = Trio (Homo sapiens, UniProt O75962); settings: cited from earlier work
Rac [5] = experiment: Rac.GTP pull-down (GST-PAK1 p21 binding domain), MDA-MB-435 cells; assay type: cell-based, human
Description: (§1) Rho, Rac, and Cdc42 activities were analyzed from MDA-MB-435 cell lysates by pulldown assays using GST-Rho binding domain from Rhotekin to isolate active GTP bound Rho, and a GST-p21 binding domain of PAK1 to isolate active Rac.GTP or Cdc42.GTP. Active and total Rho GTPases were identified by western blotting with specific antibodies: anti RhoA, anti Rac (1,2,3), anti Rac3, or anti Cdc42 (Cell Signaling Technology, Inc., Danvers, Mass.).
(§2) Cell lysates or pulldowns were western blotted using routine laboratory procedures. Anti-RhoA, -Rac (1,2,3), -Cdc42, -p-PAK^Thr423 antibodies were from Cell Signaling Technology, Inc., Danvers, Mass. Anti Vav2 was from Zymed, San Francisco, Calif.; and Rac3, PAK1, Tiam-1, and Trio antibodies were from Santa Cruz Biotechnology, Inc., Santa Cruz, Calif.

Rac [6] = experiment: Rac.GTP pull-down (GST-PAK1 p21 binding domain), MDA-MB-231 cells; assay type: cell-based, human; settings: read-out: IC50 for inhibition of Rac activity
Description: as §1, §2

Rac3 = molecular target: T1, Rac3 (Homo sapiens, UniProt P60763); experiment: Rac3-GTP pull-down, MDA-MB-435 cells; assay type: cell-based
T1 construct: endogenous in cells; host or cells: MDA-MB-435
Description: as §1, §2

Cdc42 = molecular target: T2, Cdc42 (Homo sapiens, UniProt P60953); experiment: Cdc42-GTP pull-down, MDA-MB-435 cells; assay type: cell-based
T2 construct: endogenous in cells; host or cells: MDA-MB-435
T2 sequence (P60953 whole entry): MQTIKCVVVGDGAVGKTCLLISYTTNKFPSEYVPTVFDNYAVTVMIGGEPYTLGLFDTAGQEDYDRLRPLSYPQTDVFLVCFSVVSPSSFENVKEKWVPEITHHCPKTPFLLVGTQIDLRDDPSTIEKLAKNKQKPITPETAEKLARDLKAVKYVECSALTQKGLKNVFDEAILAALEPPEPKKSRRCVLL
Description: as §1, §2

RhoA = molecular target: T3, RhoA (Homo sapiens, UniProt P61586); experiment: RhoA-GTP pull-down (GST-Rhotekin Rho binding domain), MDA-MB-435 cells; assay type: cell-based; settings: 2, 4, 5, or 10 μM
T3 construct: endogenous in cells; host or cells: MDA-MB-435
T3 sequence (P61586 whole entry, the tested form may be a part): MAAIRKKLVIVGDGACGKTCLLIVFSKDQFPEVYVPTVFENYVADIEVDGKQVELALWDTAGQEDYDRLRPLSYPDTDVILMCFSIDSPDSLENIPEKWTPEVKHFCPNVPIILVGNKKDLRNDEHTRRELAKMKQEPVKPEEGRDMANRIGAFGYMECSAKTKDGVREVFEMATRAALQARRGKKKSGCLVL
Description: as §1, §2

[7] = molecular target: T4, Vav2 association with Rac1(G15A) (Homo sapiens, UniProt P63000, G15A); experiment: Precipitation of activated GEFs with GST-Rac1(G15A) from MDA-MB-435 lysates (Vav2); assay type: binding; settings: 1 h, p<0.005, read-out: association of Vav2 with Rac1(G15A), compared to controls
T4 construct: purchased Cell Biolabs, San Diego, Calif; host or cells: Vav2: endogenous, MDA-MB-435 lysate
Description: MDA-MB-435 cells in culture media were lysed in 1% Triton X-100, 20 mM HEPES, pH 7.4, 150 mM NaCl, 5 mM MgCl2, and protease inhibitors and processed. Equal amounts of protein from clarified lysates were incubated for 1 h at 4° C. with glutathione agarose beads conjugated to GST-Rac1(G15A) nucleotide free mutant (Cell Biolabs, San Diego, Calif.), that were pre-incubated (for 1 h) with vehicle or 2 or […] EHop-016. The beads were washed and the lysates and pulldowns immunoblotted for Tiam-1, Trio, or Vav2.

MDA-MB-231 cells [8] = experiment: Lamellipodia formation by fluorescence microscopy (Rhodamine phalloidin), MDA-MB-231; assay type: cell-based, human; settings: 4 μM, 24 h, control close to 100%
Description: Metastatic human cancer cell lines MDA-MB-435 and MDA-MB-231 (in DMEM with 10% FBS) were treated with vehicle (0.1% DMSO) or EHop-016 at 2 and 4 μM for 24 hrs. Cells were fixed, permeabilized, and stained with Rhodamine phalloidin to visualize F-actin.

PAK1 = PAK1 activity by Western blot for phospho-Thr 423, MDA-MB-435 cells; assay type: cell-based, human; settings: both 2 and 4 μM, 24 h
Description: as §2
The effect of EHop-016 on Rac action was also determined by analyzing the activity of the Rac downstream effector PAK that regulates Rac-mediated lamellipodia extension and directed cell migration. […] Since Rac/PAK signaling regulates directed cell migration, the effect of EHop-016 at 0-5 μM was determined on migration of MDA-MB-435 cells by using a Transwell assay. As shown in FIG. 6(B), treatment with 2 and 5 μM EHop-016 reduced directed cell migration by ˜60% at concentrations that reduced Rac activity by ˜80% as shown in FIG. 2 and FIGS. 4A-4E. It is possible that Rac may not be the only regulator of cell migration in this highly invasive cancer cell line.

MDA-MB-435 cells [9] = experiment: Transwell cell migration assay; assay type: cell-based, human; settings: 2 and 5 μM, 24 h treatment, 4 h migration
Description: Quiescent MDA-MB-435 cells were treated with vehicle or varying concentrations of EHop-016 (0-5 μM) for 24 hrs. Exactly 2×10^5 cells were placed on the top well of Transwell chambers (Corning Life Sciences, Lowell, Mass.) with media containing 10% FBS in the bottom well. The number of cells that migrated to the underside of the membrane following 4 h incubation was quantified for each treatment.

MDA-MB-435 cells [10] = experiment: MTT cell viability assay, MDA-MB-435; assay type: cell-based, human
Description: (§3) […] Cell viability was measured using the MTT [3-(4,5-dimethylthiazol-2-yl)-2,5-diphenyl tetrazolium bromide] cell survival and proliferation kit (Millipore, Inc., Billerica, Mass.) according to manufacturer's instructions.

MCF-10A cells = experiment: MTT cell viability assay, MCF-10A mammary epithelial cells; assay type: cell-based
Description: as §3

MDA-MB-231 cells [11] = experiment: MTT cell viability assay, MDA-MB-231; assay type: cell-based, human
[12] = Body weight and gross toxicity in athymic nude mice; assay type: in vivo; settings: oral and intraperitoneal, 1 mg/kg once a week for 9 weeks; preliminary
Rac1 = Rac1 (Homo sapiens, UniProt P63000); experiment: G-LISA Rac1 activation assay on MDA-MB-435 cell lysates; design: selectivity among Rho GTPases: dose or concentration left out as unconfirmed
[13] = molecular target: Tiam-1 DH/PH domain / Rac1(G15A) (Homo sapiens, UniProt P63000, G15A); experiment: Interaction of purified Tiam-1 DH/PH domain with Rac1(G15A) beads

SMILES: O=C(C#Cc1ccccc1)c1cccc([N+](=O)[O-])c1 [MLS000532223]
- effect on GTP binding to Rac (Rac [1]): prevents GTP binding to Rac

SMILES: O=c1cc(CN2CCOCC2)occ1OCCCCCSc1ccnc2cc(C(F)(F)F)ccc12 [EHT 1864]
- concentration interfering with Rac-downstream effector interaction (Rac [2]): 10 to 50 µM
- effective concentration as Rac inhibitor (Rac [2]): 10 µM

SMILES: CCN(CC)CCCC(C)Nc1nc(C)cc(Nc2ccc3nc(C)cc(N)c3c2)n1 (stereo not shown) [NSC23766, reference compound]
- effect on lamellopodia formation (MDA-MB-435 cells [3]; 50 μM, MDA-MB-435): no significant effect
- IC50 (Rac [4]): 50000 to 100000 nM

SMILES: Cc1cc(/C=c2/sc3nc4ccccc4n3c2=O)c(C)n1-c1ccccc1 [ITX3]
- effective concentration (Trio): 50 to 100 µM

SMILES: CCn1c2ccccc2c2cc(Nc3ccnc(NCCCN4CCOCC4)n3)ccc21 [EHop-016, N^4-(9-Ethyl-9H-carbazol-3-yl)-N2-(3-morpholin-4-yl-propyl)-pyrimidine-2,4-diamine]
- inhibition of Rac activity (Rac [5]; 2 μM): 79%
- inhibition of Rac activity (Rac [5]; 4 μM): 93%
- IC50 (Rac [6]): ~3000 nM
- inhibition at 1 µM (Rac3): 58%
- effect on Cdc42 activity (Cdc42; 2 or 4 μM): did not affect
- inhibition at 5 µM (Cdc42; MDA-MB-435, 5 μM): 28%
- inhibition at 10 µM (Cdc42; MDA-MB-435, 10 μM): 74%
- increase of RhoA activity (RhoA): ~1.3 fold
- remaining activity at 4 µM [7]: ~50%
- cells that extended lamellipodia (MDA-MB-231 cells [8]): ~30%
- effect on extension of filopodia (MDA-MB-435 cells [3]; 2 and 4 μM): did not affect
- cells that extended lamellipodia (MDA-MB-435 cells [3]; both 2 and 4 μM, 24 h, MDA-MB-435, control close to 100%): ~30%
- effect on PAK activity (phospho-Thr 423 PAK1) (PAK1): dramatically inhibits
- reduction of directed cell migration (MDA-MB-435 cells [9]): ~60%
- decrease in cell number compared to controls (MDA-MB-435 cells [10]; 5 μM, MDA-MB-435, only a trend): ~30%
- cell viability remaining (MDA-MB-435 cells [10]; 10 μM, MDA-MB-435): ~50%
- effect on cell viability (MDA-MB-435 cells [10]; 25 μM, MDA-MB-435): significant reduction
- effect on cell viability (MDA-MB-435 cells [10]; 1 or 2 μM, MDA-MB-435): did not significantly affect
- effect on cell viability (MDA-MB-435 cells [10]; low concentrations (<5 μM)): does not affect
- decrease in cell number compared to controls (MCF-10A cells; 5 μM, MCF-10A, only a trend): ~30%
- cell viability remaining (MCF-10A cells; 10 μM, MCF-10A): ~50%
- effect on cell viability (MCF-10A cells; 25 μM, MCF-10A): significant reduction
- effect on cell viability (MCF-10A cells; 1 or 2 μM, MCF10A): did not significantly affect
- effect on cell viability (MDA-MB-231 cells [11]; 25 μM): significant reduction
- effect on cell viability (MDA-MB-231 cells [11]; 1 or 2 μM): did not significantly affect
- body weight and gross toxicity [12]: no change in body weight or gross indications of toxicity
- potency relative to other currently available Rac inhibitors (Rac1): 10-50 times
- selectivity among Rho GTPases (Rac1): specific for Rac1 and Rac3
- reduction of Rac activity (Rac1; 2 and 5 μM): ~80%
- potency relative to NSC23766 (Rac1; MDA-MB-435 cells): approximately 100 times
- IC50 (Rac1; read-out: IC50 for inhibition of Rac1 activity, MDA-MB-435 cells, 24 h treatment): 1100 nM
- concentration at which Tiam-1 DH/PH-Rac1(G15A) interaction is inhibited [13]: 40 µM
- effect on interaction of Tiam-1 DH/PH domain with Rac1(G15A) ([13]; 5 μM): did not affect
- inhibition at 50 µM ([13]; read-out: inhibition of Tiam-1/Rac1(G15A) interaction): 64%
